From patent US20260097090A1, “HERBAL MEDICINE EXTRACTS RM01 AND USES AND METHODS OF PREPARATION THEREOF” (RenuMemo Therapeutics LLC, priority 2022, published 2026)

System: patient with severe Alzheimer's disease
Assay: Human efficacy case study, Mini Mental State Examination (MMSE) and family report
Type: in vivo
Details: same patient, long time taking Memantine and Donepezil before RM01; drugs stopped before the visit
Method: The patient has been taking Memantine and Donepezil to treat their disease. However, both drugs were stopped before the visit.
The patient was evaluated by Mini Mental State Examination (MMSE) during the first visit.
The patient was given the herbal extract composition RM01 twice a day every day, for five weeks. Family member assisted all the process.
The patient was re-evaluated of MMSE after 1 week of treatment. In the meantime, the family member was questioned on patient daily life, regarding sleep, mood, reaction to people, behavioral and psychological symptoms.
The treatment and re-evaluation lasted 5 weeks.

Compound	patient symptom improvement on prior medication, informed by the patient's spouse
CC12CC3CC(C)(C1)CC(N)(C3)C2 [Memantine]	not much effect
COc1cc2c(cc1OC)C(=O)C(CC1CCN(Cc3ccccc3)CC1)C2 (centres unmarked) [Donepezil]	not much effect
